In ChEMBL document CHEMBL4507291 (2021) one finds residual activity and inhibition data, which are given here for two compounds.

Experiment [1] has as its target Receptor-interacting serine/threonine-protein kinase 4 (Homo sapiens) (UniProt P57078).
Experiment [2] has as its target Serine/threonine-protein kinase 10 (Homo sapiens) (UniProt O94804).
In experiment [3] the target is Atypical kinase COQ8A, mitochondrial (Homo sapiens) (UniProt Q8NI60).
Experiment [4] deals with Casein kinase II subunit alpha (Homo sapiens) (UniProt P68400).
Experiment [5] deals with Receptor-type tyrosine-protein kinase FLT3 (Homo sapiens), P36888 [D835H].
Experiment [6] addresses Mitogen-activated protein kinase kinase kinase 20 (Homo sapiens) (UniProt Q9NYL2).
Experiment [7] concerns Tyrosine-protein kinase ABL1 (Homo sapiens), P00519 [E255K].
Sequence of Tyrosine-protein kinase ABL1 (Homo sapiens), P00519 [E255K] (P00519 whole entry E255K): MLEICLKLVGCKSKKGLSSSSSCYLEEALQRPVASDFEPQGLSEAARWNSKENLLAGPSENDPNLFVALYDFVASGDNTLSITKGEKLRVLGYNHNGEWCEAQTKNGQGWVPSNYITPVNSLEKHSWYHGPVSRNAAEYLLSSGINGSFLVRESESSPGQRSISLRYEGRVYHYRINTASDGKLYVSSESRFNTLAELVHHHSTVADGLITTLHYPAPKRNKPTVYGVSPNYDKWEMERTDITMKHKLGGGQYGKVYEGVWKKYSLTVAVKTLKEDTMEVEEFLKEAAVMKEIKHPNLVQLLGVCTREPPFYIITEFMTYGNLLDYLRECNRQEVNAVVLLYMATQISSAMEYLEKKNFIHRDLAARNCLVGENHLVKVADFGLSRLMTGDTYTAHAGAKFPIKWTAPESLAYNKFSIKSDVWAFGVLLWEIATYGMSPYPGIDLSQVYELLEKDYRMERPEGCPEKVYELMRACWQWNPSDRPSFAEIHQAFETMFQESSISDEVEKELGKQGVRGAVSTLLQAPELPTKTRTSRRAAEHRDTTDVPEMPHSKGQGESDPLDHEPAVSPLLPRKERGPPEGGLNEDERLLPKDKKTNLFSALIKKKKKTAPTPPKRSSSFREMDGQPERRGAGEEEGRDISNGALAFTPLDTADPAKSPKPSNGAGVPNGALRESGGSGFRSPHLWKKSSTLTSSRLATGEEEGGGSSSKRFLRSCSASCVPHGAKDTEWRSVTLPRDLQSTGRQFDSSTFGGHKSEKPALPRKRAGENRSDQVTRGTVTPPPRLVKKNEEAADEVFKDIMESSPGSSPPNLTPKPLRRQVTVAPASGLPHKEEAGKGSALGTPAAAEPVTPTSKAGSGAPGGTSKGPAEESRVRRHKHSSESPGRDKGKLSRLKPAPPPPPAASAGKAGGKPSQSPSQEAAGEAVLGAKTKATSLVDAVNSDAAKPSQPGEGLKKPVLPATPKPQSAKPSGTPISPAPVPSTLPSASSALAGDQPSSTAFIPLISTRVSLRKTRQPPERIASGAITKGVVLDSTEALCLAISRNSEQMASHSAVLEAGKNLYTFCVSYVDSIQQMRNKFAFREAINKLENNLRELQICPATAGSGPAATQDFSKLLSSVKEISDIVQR
Experiment [8] has as its target MAP kinase-interacting serine/threonine-protein kinase 1 (Homo sapiens) (UniProt Q9BUB5).
Experiment [9] deals with Membrane-associated tyrosine- and threonine-specific cdc2-inhibitory kinase (Homo sapiens) (UniProt Q99640).
Sequence of Membrane-associated tyrosine- and threonine-specific cdc2-inhibitory kinase (Homo sapiens) (Q99640 whole entry, canonical isoform): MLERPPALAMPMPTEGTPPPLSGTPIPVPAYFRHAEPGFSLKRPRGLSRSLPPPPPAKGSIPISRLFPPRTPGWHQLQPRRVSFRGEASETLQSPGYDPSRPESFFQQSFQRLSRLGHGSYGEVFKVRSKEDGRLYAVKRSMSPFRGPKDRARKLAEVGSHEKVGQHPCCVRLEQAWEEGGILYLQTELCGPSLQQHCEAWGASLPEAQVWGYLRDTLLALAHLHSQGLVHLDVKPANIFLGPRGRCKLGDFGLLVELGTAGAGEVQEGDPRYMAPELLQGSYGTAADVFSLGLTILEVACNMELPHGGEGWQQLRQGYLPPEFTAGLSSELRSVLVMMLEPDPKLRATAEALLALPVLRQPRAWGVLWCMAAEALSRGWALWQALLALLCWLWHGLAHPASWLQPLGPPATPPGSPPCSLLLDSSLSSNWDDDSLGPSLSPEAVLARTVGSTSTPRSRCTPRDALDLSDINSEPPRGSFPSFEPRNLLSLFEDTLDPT
Experiment [10] relates to Phosphatidylinositol 4,5-bisphosphate 3-kinase catalytic subunit alpha isoform (Homo sapiens), P42336 [I800L].
Experiment [11] addresses Mitogen-activated protein kinase 11 (Homo sapiens) (UniProt Q15759).
In experiment [12] the target is Calcium/calmodulin-dependent protein kinase type II subunit beta (Homo sapiens) (UniProt Q13554).
In experiment [13] the target is T1, Muscarinic acetylcholine receptor M1 (Homo sapiens) (UniProt P11229).
T1 sequence (whole entry): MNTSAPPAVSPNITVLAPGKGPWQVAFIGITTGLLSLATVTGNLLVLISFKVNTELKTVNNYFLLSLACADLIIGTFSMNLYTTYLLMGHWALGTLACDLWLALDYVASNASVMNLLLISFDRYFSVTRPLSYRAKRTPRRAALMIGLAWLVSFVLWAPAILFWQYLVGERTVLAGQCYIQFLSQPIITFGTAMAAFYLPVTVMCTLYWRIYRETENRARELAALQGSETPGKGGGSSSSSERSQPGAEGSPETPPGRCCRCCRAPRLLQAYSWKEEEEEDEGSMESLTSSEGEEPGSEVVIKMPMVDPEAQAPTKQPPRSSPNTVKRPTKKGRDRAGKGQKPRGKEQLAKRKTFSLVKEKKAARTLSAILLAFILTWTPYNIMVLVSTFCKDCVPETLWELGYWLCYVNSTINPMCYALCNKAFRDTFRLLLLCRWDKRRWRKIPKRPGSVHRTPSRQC
The note with it: Compound concentration 10.0 uM.

Experiment [14] deals with eIF-2-alpha kinase GCN2 (Homo sapiens), Q9P2K8 [S808G].
Sequence of eIF-2-alpha kinase GCN2 (Homo sapiens), Q9P2K8 [S808G] (Q9P2K8 whole entry S808G, canonical isoform): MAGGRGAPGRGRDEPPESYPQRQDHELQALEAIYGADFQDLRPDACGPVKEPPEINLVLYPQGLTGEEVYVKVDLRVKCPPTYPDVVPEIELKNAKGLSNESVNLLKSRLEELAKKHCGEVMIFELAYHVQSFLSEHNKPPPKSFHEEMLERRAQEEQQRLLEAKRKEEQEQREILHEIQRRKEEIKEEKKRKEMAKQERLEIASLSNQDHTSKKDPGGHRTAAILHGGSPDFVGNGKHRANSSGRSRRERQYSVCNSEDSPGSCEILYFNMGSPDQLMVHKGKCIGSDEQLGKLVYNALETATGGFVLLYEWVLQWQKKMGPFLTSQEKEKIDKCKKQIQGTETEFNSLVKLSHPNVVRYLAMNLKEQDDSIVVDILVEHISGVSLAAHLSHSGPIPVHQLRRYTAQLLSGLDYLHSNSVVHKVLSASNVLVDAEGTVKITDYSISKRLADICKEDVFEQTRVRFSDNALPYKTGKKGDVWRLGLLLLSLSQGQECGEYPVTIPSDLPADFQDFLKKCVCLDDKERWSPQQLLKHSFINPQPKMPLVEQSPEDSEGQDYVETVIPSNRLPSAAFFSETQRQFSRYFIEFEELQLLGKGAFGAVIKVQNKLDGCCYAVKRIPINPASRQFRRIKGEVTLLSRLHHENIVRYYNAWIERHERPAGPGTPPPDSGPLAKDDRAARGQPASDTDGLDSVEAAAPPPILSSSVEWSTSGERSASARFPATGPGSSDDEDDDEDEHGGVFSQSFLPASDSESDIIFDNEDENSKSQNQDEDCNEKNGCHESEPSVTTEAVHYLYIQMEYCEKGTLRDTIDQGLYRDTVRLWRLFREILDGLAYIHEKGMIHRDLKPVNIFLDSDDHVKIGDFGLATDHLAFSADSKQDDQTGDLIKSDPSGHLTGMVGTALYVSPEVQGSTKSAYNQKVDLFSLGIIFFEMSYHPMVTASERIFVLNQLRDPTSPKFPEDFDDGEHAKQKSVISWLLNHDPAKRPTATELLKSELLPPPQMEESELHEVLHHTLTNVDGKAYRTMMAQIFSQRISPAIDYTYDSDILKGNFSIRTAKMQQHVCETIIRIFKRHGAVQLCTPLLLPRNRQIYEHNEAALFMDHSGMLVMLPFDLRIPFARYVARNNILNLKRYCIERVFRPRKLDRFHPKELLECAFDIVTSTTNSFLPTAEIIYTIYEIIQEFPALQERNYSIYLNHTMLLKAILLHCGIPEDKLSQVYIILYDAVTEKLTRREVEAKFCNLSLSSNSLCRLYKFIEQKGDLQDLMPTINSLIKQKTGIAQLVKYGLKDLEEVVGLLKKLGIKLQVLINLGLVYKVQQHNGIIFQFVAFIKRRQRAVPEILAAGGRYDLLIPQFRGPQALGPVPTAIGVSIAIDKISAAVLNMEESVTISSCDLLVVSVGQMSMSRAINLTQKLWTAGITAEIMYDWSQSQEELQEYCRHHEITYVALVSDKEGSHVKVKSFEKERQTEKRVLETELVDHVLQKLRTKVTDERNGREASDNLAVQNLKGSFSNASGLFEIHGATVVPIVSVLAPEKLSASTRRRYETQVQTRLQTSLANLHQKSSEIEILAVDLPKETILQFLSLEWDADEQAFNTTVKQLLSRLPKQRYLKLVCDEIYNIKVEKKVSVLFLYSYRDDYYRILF
The target in experiment [15] is Phosphorylase b kinase gamma catalytic chain, skeletal muscle/heart isoform (Homo sapiens) (UniProt Q16816).
Experiment [16] concerns the target T2, NUAK family SNF1-like kinase 1 (Homo sapiens) (UniProt O60285).
T2 sequence (whole entry): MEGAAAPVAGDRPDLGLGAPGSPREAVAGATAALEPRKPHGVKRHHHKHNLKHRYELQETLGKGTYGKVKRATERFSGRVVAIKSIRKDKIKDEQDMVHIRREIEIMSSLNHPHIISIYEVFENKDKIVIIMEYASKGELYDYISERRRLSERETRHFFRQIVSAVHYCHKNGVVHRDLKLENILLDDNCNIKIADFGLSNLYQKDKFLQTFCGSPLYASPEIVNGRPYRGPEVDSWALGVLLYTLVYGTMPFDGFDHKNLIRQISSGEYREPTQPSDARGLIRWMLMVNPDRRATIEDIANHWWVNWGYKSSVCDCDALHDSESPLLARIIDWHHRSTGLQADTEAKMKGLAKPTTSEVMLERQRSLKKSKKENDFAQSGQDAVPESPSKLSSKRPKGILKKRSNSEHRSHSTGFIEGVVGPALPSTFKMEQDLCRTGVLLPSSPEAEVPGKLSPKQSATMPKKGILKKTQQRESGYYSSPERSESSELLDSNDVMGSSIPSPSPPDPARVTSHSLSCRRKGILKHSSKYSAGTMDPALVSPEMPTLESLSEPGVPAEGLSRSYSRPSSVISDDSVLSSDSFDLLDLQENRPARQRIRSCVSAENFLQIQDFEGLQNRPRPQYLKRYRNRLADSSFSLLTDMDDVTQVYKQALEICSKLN

Experiment [17] concerns Epidermal growth factor receptor (Homo sapiens), P00533 [UNDEFINED MUTATION].
Sequence of Epidermal growth factor receptor (Homo sapiens), P00533 [UNDEFINED MUTATION] (P00533 whole entry, looked up, change not shown): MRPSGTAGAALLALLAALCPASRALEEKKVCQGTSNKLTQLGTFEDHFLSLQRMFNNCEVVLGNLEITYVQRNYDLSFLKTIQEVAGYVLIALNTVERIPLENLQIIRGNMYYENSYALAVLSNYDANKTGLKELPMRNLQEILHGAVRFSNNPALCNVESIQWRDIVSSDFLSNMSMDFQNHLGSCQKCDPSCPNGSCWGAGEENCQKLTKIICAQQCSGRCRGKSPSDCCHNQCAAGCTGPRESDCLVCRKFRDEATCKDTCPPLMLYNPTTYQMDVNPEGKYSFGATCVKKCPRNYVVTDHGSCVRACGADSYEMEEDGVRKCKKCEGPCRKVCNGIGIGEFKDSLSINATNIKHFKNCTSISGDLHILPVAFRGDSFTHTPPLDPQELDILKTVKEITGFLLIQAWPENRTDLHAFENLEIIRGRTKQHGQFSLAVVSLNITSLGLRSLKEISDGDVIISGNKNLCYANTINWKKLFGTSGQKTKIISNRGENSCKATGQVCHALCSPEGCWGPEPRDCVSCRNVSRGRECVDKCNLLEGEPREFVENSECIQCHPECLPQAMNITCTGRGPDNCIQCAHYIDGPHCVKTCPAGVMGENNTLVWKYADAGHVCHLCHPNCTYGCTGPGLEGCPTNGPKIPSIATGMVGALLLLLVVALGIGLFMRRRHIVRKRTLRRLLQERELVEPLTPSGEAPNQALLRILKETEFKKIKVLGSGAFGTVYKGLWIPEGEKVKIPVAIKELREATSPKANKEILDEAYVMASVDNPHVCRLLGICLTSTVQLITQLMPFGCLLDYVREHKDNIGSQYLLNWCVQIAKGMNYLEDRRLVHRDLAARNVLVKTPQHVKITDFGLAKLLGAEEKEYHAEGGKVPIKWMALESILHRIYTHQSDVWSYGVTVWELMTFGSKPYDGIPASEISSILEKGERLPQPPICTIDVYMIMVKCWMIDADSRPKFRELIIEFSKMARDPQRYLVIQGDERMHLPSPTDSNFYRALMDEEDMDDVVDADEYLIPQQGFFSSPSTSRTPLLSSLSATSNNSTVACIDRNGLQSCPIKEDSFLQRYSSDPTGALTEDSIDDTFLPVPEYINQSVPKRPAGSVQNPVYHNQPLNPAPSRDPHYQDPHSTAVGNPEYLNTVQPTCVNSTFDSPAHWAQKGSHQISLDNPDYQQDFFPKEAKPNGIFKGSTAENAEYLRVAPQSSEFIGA
[18] abbreviates: Compound concentration 1000.0 nM.
Where [19] appears, read: Compound concentration 100.0 nM.

Sequence of MAP kinase-interacting serine/threonine-protein kinase 1 (Homo sapiens) (Q9BUB5 whole entry, looked up): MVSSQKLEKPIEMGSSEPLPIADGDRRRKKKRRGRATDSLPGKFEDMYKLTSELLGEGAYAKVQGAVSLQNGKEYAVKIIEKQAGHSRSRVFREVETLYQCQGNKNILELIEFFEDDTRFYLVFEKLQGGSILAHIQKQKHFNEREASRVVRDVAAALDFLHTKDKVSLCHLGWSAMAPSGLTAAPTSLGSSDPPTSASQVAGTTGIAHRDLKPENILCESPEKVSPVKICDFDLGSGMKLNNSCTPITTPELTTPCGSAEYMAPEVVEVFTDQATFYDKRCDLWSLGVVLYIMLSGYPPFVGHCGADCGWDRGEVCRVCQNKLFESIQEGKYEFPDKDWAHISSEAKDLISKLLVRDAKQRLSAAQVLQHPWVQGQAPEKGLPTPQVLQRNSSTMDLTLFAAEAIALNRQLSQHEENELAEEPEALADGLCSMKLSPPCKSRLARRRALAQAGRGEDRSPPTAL

Turning to `C[C@@H]1CN(c2cc(-c3nn(C)c4ccc(OC5(C)CC5)cc34)ncn2)C[C@H](C)O1` [MLi-2-NC], the residual activity was 85% in [1] (setting [18]); 91% in [2] (setting [18]); 100% in experiment [3] (setting [18]); 76% in experiment [4] (setting [18]); 84% in experiment [5] (setting [18]); 100% in experiment [6] (setting [18]). The residual activity was 79% in experiment [7] (setting [18]); 79% in experiment [8] (setting [18]); 100% in [9] (setting [18]); 66% in [10] (setting [18]); 88% in experiment [11] (setting [18]); 96% in experiment [12] (setting [18]). For the same compound, the residual activity in [14] (setting [18]) is 100%; in experiment [15] (setting [18]), 90%; in [16] (setting [18]), 100%; in experiment [17] (setting [18]) it was 74%. In addition, in experiment [13], the inhibition is -1.02%.

Consider `C[C@@H]1CN(c2cc(-c3n[nH]c4ccc(OC5(C)CC5)cc34)ncn2)C[C@H](C)O1` [MLi-2], for which the residual activity in [1] (setting [19]) was 48%; in experiment [2] (setting [19]), 83%; in experiment [3] (setting [19]) it was 85%; in [4] (setting [19]), 66%; in experiment [5] (setting [19]), 100%; in experiment [6] (setting [19]), 92%. For the same compound, the residual activity in experiment [7] (setting [19]) was 66%; in [8] (setting [19]) it was 67%; in experiment [9] (setting [19]) it was 96%; in experiment [10] (setting [19]), 87%; in [11] (setting [19]), 89%; in experiment [12] (setting [19]), 100%. Further, the residual activity in [14] (setting [19]) was 81%; in experiment [15] (setting [19]), 100%; in experiment [16] (setting [19]), 92%; in experiment [17] (setting [19]), 43%. Also, the inhibition in experiment [13] was 3.04%.

Usually inhibition stands for the change of the read-out against control, counted positive when it falls.
